According to patent US20240116985A1, “STAPLED PEPTIDES AND METHODS THEREOF” (priority 2020, published 2024):
Where two headings read alike, the source gives them in different places.

Tests used:
[1] = biological target: T1, beta-catenin/TCF4 engagement (Homo sapiens, UniProt P35222); experiment: Nano-BRET target engagement assay (B-cat-Halo & TCF4-Luc in HEK293 cells); type: cell-based; details: absolute IC50; read-out: NanoBRET Abs IC50
T1 construct: expressed in transfected cells; host or cells: HEK293
T1 sequence (P35222 1-781): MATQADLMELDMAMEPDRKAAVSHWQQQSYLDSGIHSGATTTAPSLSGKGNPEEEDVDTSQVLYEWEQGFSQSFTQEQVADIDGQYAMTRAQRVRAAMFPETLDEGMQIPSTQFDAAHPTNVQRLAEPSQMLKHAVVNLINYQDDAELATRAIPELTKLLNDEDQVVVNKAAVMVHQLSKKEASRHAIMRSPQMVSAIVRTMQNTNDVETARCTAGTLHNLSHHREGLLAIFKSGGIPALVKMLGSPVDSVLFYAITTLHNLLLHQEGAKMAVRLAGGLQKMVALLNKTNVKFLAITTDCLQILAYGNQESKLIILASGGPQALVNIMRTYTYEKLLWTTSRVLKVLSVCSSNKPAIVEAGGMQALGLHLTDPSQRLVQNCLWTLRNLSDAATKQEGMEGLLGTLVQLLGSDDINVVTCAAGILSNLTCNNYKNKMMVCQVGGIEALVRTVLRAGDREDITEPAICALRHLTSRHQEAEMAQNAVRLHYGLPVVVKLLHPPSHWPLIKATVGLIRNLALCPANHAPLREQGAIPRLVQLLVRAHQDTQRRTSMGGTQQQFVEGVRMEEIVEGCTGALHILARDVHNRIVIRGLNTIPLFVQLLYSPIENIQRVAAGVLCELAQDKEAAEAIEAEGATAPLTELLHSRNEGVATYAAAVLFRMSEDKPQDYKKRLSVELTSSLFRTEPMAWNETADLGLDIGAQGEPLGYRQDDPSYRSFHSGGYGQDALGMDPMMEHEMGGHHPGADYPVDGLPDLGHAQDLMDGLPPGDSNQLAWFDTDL

[2] = biological target: T2, full-length beta-Catenin (Uniprot ID P35222) (Homo sapiens, UniProt P35222); experiment: Fluorescence polarization IC50 (beta-catenin / 5FAM-TCF4 10-53 competition); type: binding; details: fluorescence polarization
T2 construct: 10 nM full-length beta-Catenin (Uniprot ID P35222)
T2 sequence (P35222 1-781): T1 sequence (P35222 1-781)

[3] = beta-catenin, read-out: FP EC50

| Compound | IC50 [1] [nM] | IC50 ([2]; read-out: beta-Catenin FP IC50) [nM] | IC50 [2, 3] [nM] |
| --- | --- | --- | --- |
| CC(=O)N1CCC[C@]12CC=CCCCC1(CCCC=CCCCCCC[C@@](C)(C(=O)N[C@@H](Cc3ccsc3)C(=O)N[C@@H](Cc3csc4ccccc34)C(=O)N[C@@H](CCC(N)=O)C(N)=O)NC(=O)[C@H](CC(N)=O)NC(=O)[C@H](Cc3ccccc3)NC(=O)[C@H](C)NC(=O)[C@H](C)NC(=O)[C@H](CN(CCCC(F)(F)F)CC(=O)O)NC(=O)[C@H](CC(=O)O)NC1=O)NC(=O)[C@H](CC(C)(C)C)NC(=O)[C@H](CC(=O)O)NC2=O (stereo partly drawn) [I-1454, Ac-PL3-Asp-Npg-B5-Asp-[Tfb]GA-Ala-Ala-Phe-Asn-S8-3Thi-BztA-Gln-NH2] | 26800 | 22 | 22 |
| CC(=O)N1CCC[C@]12CC=CCCCC1(CCCC=CCCCCCC[C@@](C)(C(=O)N[C@@H](Cc3ccsc3)C(=O)N[C@@H](Cc3csc4ccccc34)C(=O)N[C@@H](CCC(N)=O)C(N)=O)NC(=O)[C@H](CC(N)=O)NC(=O)[C@H](Cc3ccccc3)NC(=O)[C@H](C)NC(=O)[C@H](C)NC(=O)[C@H](CN(CCCC(F)(F)F)CC(=O)O)NC(=O)[C@H](CC(=O)O)NC1=O)NC(=O)[C@H](CC(C)(C)C)NC(=O)[C@H](CC(=O)O)NC2=O (stereo partly drawn) [I-1455, Ac-PL3-Asp-Npg-B5-Asp-[Tfb]GA-Ala-Ala-Phe-Asn-S8-3Thi-BztA-Gln-NH2] | 23100 | 13 | 13 |
| CC(=O)N1CCC[C@]12CC=CCCCC1(CCCC=CCCCCCC[C@@](C)(C(=O)N[C@@H](Cc3ccsc3)C(=O)N[C@@H](Cc3csc4ccccc34)C(=O)N[C@@H](CCC(N)=O)C(N)=O)NC(=O)[C@H](CC(N)=O)NC(=O)[C@H](Cc3ccccc3)NC(=O)[C@H](C)NC(=O)[C@H](C)NC(=O)[C@H](CN(CC(=O)O)Cc3ccccc3)NC(=O)[C@H](CC(=O)O)NC1=O)NC(=O)[C@H](CC(C)(C)C)NC(=O)[C@H](CC(=O)O)NC2=O (stereo partly drawn) [I-1456, Ac-PL3-Asp-Npg-B5-Asp-[Bn]GA-Ala-Ala-Phe-Asn-S8-3Thi-BztA-Gln-NH2] | 23700 | 16 | – |
| CC(=O)N1CCC[C@]12CC=CCCCC1(CCCC=CCCCCCC[C@@](C)(C(=O)N[C@@H](Cc3ccccc3)C(=O)N[C@@H](Cc3csc4ccccc34)C(=O)N[C@@H](CCC(N)=O)C(N)=O)NC(=O)[C@H](CCC(N)=O)NC(=O)[C@H](Cc3ccccc3)NC(=O)[C@H](C)NC(=O)[C@H](C)NC(=O)[C@H](CCC(=O)O)NC(=O)[C@H](CC(=O)O)NC1=O)NC(=O)[C@H](CC(C)C)NC(=O)[C@H](CC(=O)O)NC2=O (stereo partly drawn) [I-1458, Ac-PL3-Asp-Leu-B5-Asp-Glu-Ala-Ala-Phe-Gln-S8-Phe-BztA-Gln-NH2] | 18100 | 26 | – |
| CC(=O)N1CCC[C@]12CC=CCCCC1(CCCC=CCCCOC(=O)N3CC[C@@](C(=O)N[C@@H](Cc4ccsc4)C(=O)N[C@@H](Cc4csc5ccccc45)C(=O)N[C@@H](CCC(N)=O)C(N)=O)(C3)NC(=O)[C@H](CC(C)C)NC(=O)[C@H](Cc3ccccc3)NC(=O)[C@H](C)NC(=O)[C@H](C)NC(=O)[C@H](CC(=O)O)NC(=O)[C@H](CC(=O)O)NC1=O)NC(=O)[C@H](CCCCNC(=O)COCCOCCNC(=O)CC[C@@H](C)[C@H]1CC[C@H]3[C@@H]4CC[C@@H]5C[C@H](O)CC[C@]5(C)[C@H]4CC[C@]13C)NC(=O)[C@H](CC(=O)O)NC2=O (stereo partly drawn) [I-1470, Ac-PL3-Asp-[lithocholate-PEG2]-Lys-B5-Asp-Asp-Ala-Ala-Phe-Leu-PyrS2-3Thi-BztA-Gln-NH2] | > 20000 | 57 | – |
| CC(=O)N1CCC[C@]12CC=CCCCC1(CCCC=CCCCOC(=O)N3CC[C@@](C(=O)N[C@@H](Cc4ccsc4)C(=O)N[C@@H](Cc4csc5ccccc45)C(=O)N[C@@H](CCC(N)=O)C(N)=O)(C3)NC(=O)[C@H](CC(C)C)NC(=O)[C@H](Cc3ccccc3)NC(=O)[C@H](C)NC(=O)[C@H](C)NC(=O)[C@H](CC(=O)O)NC(=O)[C@H](CC(=O)O)NC1=O)NC(=O)[C@H](CCCCNC(=O)C13CC4(C)CC(C)(CC(C)(C4)C1)C3)NC(=O)[C@H](CC(=O)O)NC2=O (stereo partly drawn) [I-1471, Ac-PL3-Asp-[Me3AdamantC]-Lys-B5-Asp-Asp-Ala-Ala-Phe-Leu-PyrS2-3Thi-BztA-Gln-NH2] | > 20000 | 34 | – |

Further lines, results first:

| IC50 [1] [nM] | IC50 ([2]; read-out: beta-Catenin FP IC50) [nM] | IC50 [2, 3] [nM] | Compound |
| --- | --- | --- | --- |
| 9500 | 24 | – | CC(=O)N1CCC[C@]12CC=CCCCC1(CCCC=CCCCOC(=O)N3CC[C@@](C(=O)N[C@@H](Cc4ccsc4)C(=O)N[C@@H](Cc4csc5ccccc45)C(=O)N[C@@H](CCC(N)=O)C(N)=O)(C3)NC(=O)[C@H](CC(C)C)NC(=O)[C@H](Cc3ccccc3)NC(=O)[C@H](C)NC(=O)[C@H](C)NC(=O)[C@H](CO)NC(=O)[C@H](CC(=O)O)NC1=O)NC(=O)[C@H](CC(C)(C)C)NC(=O)[C@H](CC(=O)O)NC2=O (stereo partly drawn) [I-1443, Ac-PL3-Asp-Npg-B5-Asp-Ser-Ala-Ala-Phe-Leu-PyrS2-3Thi-BztA-Gln-NH2] |
| 11100 | 13 | – | CC(=O)N1CCC[C@]12CC=CCCCC1(CCCC=CCCCOC(=O)N3CC[C@@](C(=O)N[C@@H](Cc4ccsc4)C(=O)N[C@@H](Cc4csc5ccccc45)C(=O)N[C@@H](CCC(N)=O)C(N)=O)(C3)NC(=O)[C@H](CC(C)C)NC(=O)[C@H](Cc3ccccc3)NC(=O)[C@H](C)NC(=O)[C@H](C)NC(=O)[C@H](Cc3cn(CC(=O)O)c4ccccc34)NC(=O)[C@H](CC(=O)O)NC1=O)NC(=O)[C@H](CC(C)(C)C)NC(=O)[C@H](CC(=O)O)NC2=O (stereo partly drawn) [I-1445, Ac-PL3-Asp-Npg-B5-Asp-1AcAW-Ala-Ala-Phe-Leu-PyrS2-3Thi-BztA-Gln-NH2] |
| 35200 | 9 | – | CC(=O)N1CCC[C@]12CC=CCCCC1(CCCC=CCCCOC(=O)N3CC[C@@](C(=O)N[C@@H](Cc4ccccc4Cl)C(=O)N[C@@H](Cc4csc5ccccc45)C(=O)N[C@@H](CCC(N)=O)C(N)=O)(C3)NC(=O)[C@H](CC(N)=O)NC(=O)[C@H](Cc3ccccc3)NC(=O)[C@H](C)NC(=O)[C@H](C)NC(=O)[C@H](CN(CCCC(F)(F)F)CC(=O)O)NC(=O)[C@H](CC(=O)O)NC1=O)NC(=O)[C@H](CC(C)(C)C)NC(=O)[C@H](CC(=O)O)NC2=O (stereo partly drawn) [I-1446, Ac-PL3-Asp-Npg-B5-Asp-[Tfb]GA-Ala-Ala-Phe-Asn-PyrS2-2C1F-BztA-Gln-NH2] |
| 43400 | 11 | – | CC(=O)N1CCC[C@]12CC=CCCCC1(CCCC=CCCCOC(=O)N3CC[C@@](C(=O)N[C@@H](Cc4ccccc4Cl)C(=O)N[C@@H](Cc4csc5ccccc45)C(=O)N[C@@H](CCC(N)=O)C(N)=O)(C3)NC(=O)[C@H](CC(N)=O)NC(=O)[C@H](Cc3ccccc3)NC(=O)[C@H](C)NC(=O)[C@H](C)NC(=O)[C@H](CN(CC(=O)O)Cc3ccccc3)NC(=O)[C@H](CC(=O)O)NC1=O)NC(=O)[C@H](CC(C)(C)C)NC(=O)[C@H](CC(=O)O)NC2=O (stereo partly drawn) [I-1447, Ac-PL3-Asp-Npg-B5-Asp-[Bn]GA-Ala-Ala-Phe-Asn-PyrS2-2C1F-BztA-Gln-NH2] |
| 29300 | 16 | 16 | CC(=O)N1CCC[C@]12CC=CCCCC1(CCCC=CCCCOC(=O)N3CC[C@@](C(=O)N[C@@H](Cc4ccccc4Cl)C(=O)N[C@@H](Cc4csc5ccccc45)C(=O)N[C@@H](CCC(N)=O)C(N)=O)(C3)NC(=O)[C@H](CC(N)=O)NC(=O)[C@H](Cc3ccccc3)NC(=O)[C@H](C)NC(=O)[C@H](C)NC(=O)[C@H](CN(CC(=O)O)Cc3c(F)c(F)c(F)c(F)c3F)NC(=O)[C@H](CC(=O)O)NC1=O)NC(=O)[C@H](CC(C)(C)C)NC(=O)[C@H](CC(=O)O)NC2=O (stereo partly drawn) [I-1449, Ac-PL3-Asp-Npg-B5-Asp-[Pfbn]GA-Ala-Ala-Phe-Asn-PyrS2-2C1F-BztA-Gln-NH2] |
| 26200 | 13 | – | CC(=O)N1CCC[C@]12CC=CCCCC1(CCCC=CCCCOC(=O)N3CC[C@@](C(=O)N[C@@H](Cc4ccccc4Cl)C(=O)N[C@@H](Cc4csc5ccccc45)C(=O)N[C@@H](CCC(N)=O)C(N)=O)(C3)NC(=O)[C@H](CC(N)=O)NC(=O)[C@H](Cc3ccccc3)NC(=O)[C@H](C)NC(=O)[C@H](C)NC(=O)[C@H](CN(CC(=O)O)C(C)C)NC(=O)[C@H](CC(=O)O)NC1=O)NC(=O)[C@H](CC(C)(C)C)NC(=O)[C@H](CC(=O)O)NC2=O (stereo partly drawn) [I-1451, Ac-PL3-Asp-Npg-B5-Asp-[iPr]GA-Ala-Ala-Phe-Asn-PyrS2-2C1F-BztA-Gln-NH2] |
| > 20000 | 43 | – | CC(=O)N1CCC[C@]12CC=CCCCC1(CCCC=CCCCOC(=O)N3CC[C@@](C(=O)N[C@@H](Cc4ccccc4Cl)C(=O)N[C@@H](Cc4csc5ccccc45)C(=O)N[C@@H](CCC(N)=O)C(N)=O)(C3)NC(=O)[C@H](CC(N)=O)NC(=O)[C@H](Cc3ccccc3)NC(=O)[C@H](C)NC(=O)[C@H](C)NC(=O)[C@H](CNCCC(F)(F)F)NC(=O)[C@H](CC(=O)O)NC1=O)NC(=O)[C@H](CC(C)(C)C)NC(=O)[C@H](CC(=O)O)NC2=O (stereo partly drawn) [I-1457, Ac-PL3-Asp-Npg-B5-Asp-[Tfp]Dap-Ala-Ala-Phe-Asn-PyrS2-2C1F-BztA-Gln-NH2] |
